Measured values published in US8513242B2, “Pyrimidine compounds and methods of making and using same” (Cystic Fibrosis Foundation Therapeutics, Inc., priority 2008, dated 2013).

What was measured:
ΔF508 CFTR [1] = molecular target: T1, ΔF508 CFTR (Homo sapiens, UniProt P13569, DEL508-508); experiment: Dual corrector potentiator assay, corrector mode: FRT cell Ussing chamber short circuit current after 24 hours exposure to compound; assay type: cell-based; conditions: for EC50: FRT cell monolayers, 24 hours exposure, EC50 defined as concentration giving >25% increase in whole cell Cl− conductance vs DMSO at 37° C.; for Corrector Efficacy: ΔIcompound(forskolin+IBMX+genistein)/ΔIvehicle(forskolin+IBMX+genistein)
T1 construct: expressed in transfected cells; host or cells: FRT epithelial cells (Fischer rat thyroid)
T1 sequence (P13569 with tags, fused parts or gaps DEL508-508): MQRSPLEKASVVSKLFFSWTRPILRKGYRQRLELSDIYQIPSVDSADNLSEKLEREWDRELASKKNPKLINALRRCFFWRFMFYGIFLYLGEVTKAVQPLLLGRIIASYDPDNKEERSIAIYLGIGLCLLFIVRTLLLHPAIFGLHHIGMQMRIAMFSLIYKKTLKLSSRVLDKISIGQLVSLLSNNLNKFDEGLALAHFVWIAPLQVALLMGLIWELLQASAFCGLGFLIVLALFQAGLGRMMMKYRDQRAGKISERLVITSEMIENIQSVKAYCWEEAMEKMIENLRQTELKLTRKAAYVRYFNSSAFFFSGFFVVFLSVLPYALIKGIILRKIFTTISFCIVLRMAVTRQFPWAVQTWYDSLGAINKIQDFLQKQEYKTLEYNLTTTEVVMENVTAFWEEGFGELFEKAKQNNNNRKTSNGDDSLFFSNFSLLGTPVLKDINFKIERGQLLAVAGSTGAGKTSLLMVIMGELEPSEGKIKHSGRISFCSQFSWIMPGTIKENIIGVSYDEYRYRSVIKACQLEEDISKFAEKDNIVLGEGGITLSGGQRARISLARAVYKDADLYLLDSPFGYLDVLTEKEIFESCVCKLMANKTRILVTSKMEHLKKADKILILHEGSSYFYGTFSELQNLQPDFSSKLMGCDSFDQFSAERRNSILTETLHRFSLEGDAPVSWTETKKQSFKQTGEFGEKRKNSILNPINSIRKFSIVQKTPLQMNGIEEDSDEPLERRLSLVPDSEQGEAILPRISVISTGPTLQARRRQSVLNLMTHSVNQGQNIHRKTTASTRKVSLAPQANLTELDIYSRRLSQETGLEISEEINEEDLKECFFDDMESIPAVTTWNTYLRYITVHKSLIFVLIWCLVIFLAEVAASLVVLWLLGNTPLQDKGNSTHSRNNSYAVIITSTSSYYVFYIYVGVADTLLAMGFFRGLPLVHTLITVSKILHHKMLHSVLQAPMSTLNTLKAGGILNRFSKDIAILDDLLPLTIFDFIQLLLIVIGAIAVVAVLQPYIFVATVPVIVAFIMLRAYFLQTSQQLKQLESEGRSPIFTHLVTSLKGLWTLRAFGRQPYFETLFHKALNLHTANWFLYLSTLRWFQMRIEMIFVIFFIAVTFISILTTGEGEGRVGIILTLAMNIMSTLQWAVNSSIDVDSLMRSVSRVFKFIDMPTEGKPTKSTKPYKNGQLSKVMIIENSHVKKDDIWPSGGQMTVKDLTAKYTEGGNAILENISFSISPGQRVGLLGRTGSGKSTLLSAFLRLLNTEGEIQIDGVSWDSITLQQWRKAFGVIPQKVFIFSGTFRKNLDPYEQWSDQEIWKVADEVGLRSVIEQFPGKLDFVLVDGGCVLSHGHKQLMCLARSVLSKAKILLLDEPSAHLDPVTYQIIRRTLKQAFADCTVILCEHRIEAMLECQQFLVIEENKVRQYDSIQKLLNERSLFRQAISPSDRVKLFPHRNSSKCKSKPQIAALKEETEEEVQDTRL
Protocol: (§1) FRT epithelial cell monolayers were grown on Snapwell filter inserts and optionally treated with a reference corrector N-(2-(5-chloro-2-methoxyphenylamino)-4′-methyl-4,5′-bithiazol-2′-yl)benzamide. The cells were exposed to a compound of the invention for 24 hours prior to the assay. The inserts were transferred to a Navicyte Ussing recording chamber and superfused with a HEPES buffered physiological saline (HB-PS) with composition (in mM): NaCl, 137; KCl, 4.0; CaCl2, 1.8; MgCl2, 1; HEPES, 10; Glucose, 10; pH adjusted to 7.4 with NaOH. The mucosal solution was 10CF-PS (composition in mM: Na-gluconate, 137; KCl, 4; CaCl2, 1.8; MgCl2, 1; HEPES, 10; Mannitol, 10; pH adjusted to 7.4 with N-methyl-D-glucamine) to create a transepithelial Cl ion gradient. A Physiologic Instruments VCC MC6 epithelial voltage clamp (Physiologic Instruments, Inc., San Diego, Calif.) was used to record the short circuit current (ISC).
(§2) Inserts were voltage clamped at 0 mV to measure the ISC. 10CF-PS solution (5 ml) was added to the mucosal (top) side of the Snapwell filter and HB-PS solution (5 mL) was added to the serosal (bottom) side of the Snapwell filter insert to permeabilize the serosal membrane. Solution additions and replacements in the Navicyte chambers were performed in a way to maintain a hydrostatic pressure gradient from mucosal to serosal sides of the filters by maintaining a solution level greater or equal in the mucosal chamber relative to the serosal chamber during solution changes. After acquisition of at least 10 minutes of baseline current, agonists (final concentrations: 10 μM forskolin, 100 μM 3-isobutyl-1-methylxanthine [IBMX] and 20 μM genistein) and antagonist (final concentration: 10 μM CFTRinh-172) were applied sequentially and cumulatively at 10 minute intervals for forskolin and IBMX, and at 15 minute intervals for genistein and CFTRinh-172, to both serosal and mucosal epithelial surfaces.
(§3) Agonists were prepared as 200×-1000× concentrated solutions in HP-PS and 10CF-PS. Agonist stocks prepared in HB-PS were added to the serosal surface, while agonist stocks prepared in 10CF-PS were added to the mucosal surface. In potentiator assays, appropriate volumes from 10 mM test compound solution in DMSO were added to the mucosal 10CF-PS solution. Agonists were diluted to the final working concentration in the Navicyte chamber by removal of chamber solution and addition of the concentrated stock solution. Order of solution removal was serosal then mucosal and for solution additions mucosal then serosal in order to maintain a hydrostatic pressure gradient from mucosal to serosal during solution changes. Transepithelial resistance was monitored every 20 s with 10 mV voltage steps.
(§4) EC50 values are defined as the concentration of compound that gives a >25% increase in whole cell Cl^− conductance (compared to DMSO at 37° C. as a vehicle) at 10 μM. The corrector efficacy was measured as a percentage change in agonist+compound vs. agonist: ΔIcompound(forskolin+IBMX+genistein)/ΔIvehicle(forskolin+IBMX+genistein). The potentiator efficacy was measured as a percentage change in forskolin activity: ΔI(forskolin+compound)/ΔI(forskolin+IBMX+genistein).

ΔF508 CFTR [2] = molecular target: T1, ΔF508 CFTR; experiment: Dual corrector potentiator assay, potentiator mode: FRT cell Ussing chamber short circuit current, compound added to mucosal solution; assay type: cell-based; conditions: for Potentiator Efficacy: ΔI(forskolin+compound)/ΔI(forskolin+IBMX+genistein)
Protocol: as §1, §2, §3, §4

[3] = ** cells treated with reference corrector N-(2-(5-chloro-2-methoxyphenylamino)-4′-methyl-4,5′-bithiazol-2′-yl)benzamide
[4] = pretreatment of cells not given

Compound | EC50 (ΔF508 CFTR [1]) [µM] | Corrector Efficacy (ΔF508 CFTR [1]) | EC50 (ΔF508 CFTR [2]; * vehicle treated cells) [µM] | Potentiator Efficacy (ΔF508 CFTR [2]; * vehicle treated cells) | EC50 (ΔF508 CFTR [2]; [3]) [µM] | Potentiator Efficacy (ΔF508 CFTR [2]; [3]) | EC50 (ΔF508 CFTR [2]; [4]) [µM] | Potentiator Efficacy (ΔF508 CFTR [2]; [4])
C[C@H]1CC[C@@H](Nc2ncc(-c3ccc(OC(F)(F)F)cc3)cn2)CC1 [Example 4, N-((1S,4S)-4-Methylcyclohexyl)-5-(4-(trifluoromethoxy)phenyl)pyrimidin-2-amine] | < 10 | +++ (+++=>3) | < 3 | +++* (+++=>0.6) | < 3 | +++** (+++=>0.6) |  | 
COc1nc(N[C@H]2CC[C@@H](C)CC2)ncc1-c1ccc(N2CCCCC2)nc1 [Example 119, 4-methoxy-N-((1s,4s)-4-methylcyclohexyl)-5-(6-(piperidin-1-yl)pyridin-3-yl)pyrimidin-2-amine] | < 10 | +++ (+++=>3) |  |  |  |  |  | 
COc1nc(N[C@H]2CC[C@@H](C)CC2)ncc1-c1ccc(OC(C)C)nc1 [Example 118, 5-(6-isopropoxypyridin-3-yl)-4-methoxy-N-((1s,4s)-4-methylcyclohexyl)pyrimidin-2-amine] | < 10 | +++ (+++=>3) |  |  |  |  |  | 
COc1nc(N[C@H]2CC[C@@H](C)CC2)ncc1-c1ccc(OC(C)C)cc1 [Example 7, 5-(4-Isopropoxyphenyl)-4-methoxy-N-((1S,4S)-4-methylcyclohexyl)pyrimidin-2-amine] | < 10 | +++ (+++=>3) |  |  | < 10 | ++** (++=0.3-0.6) |  | 
COc1nc(N[C@H]2CC[C@@H](C)CC2)ncc1-c1ccc(OC(C)C)cc1 [Example 102, 5-(4-isopropoxyphenyl)-4-methoxy-N-((1s,4s)-4-methylcyclohexyl)pyrimidin-2-amine] |  |  |  |  |  |  | < 3 | ++ (++=0.3-0.6)
COc1nc(N[C@H]2CC[C@@H](C)CC2)ncc1-c1ccc(OC(F)(F)F)cc1 [Example 58, 4-methoxy-N-((1s,4s)-4-methylcyclohexyl)-5-(4-(trifluoromethoxy)phenyl)pyrimidin-2-amine] | < 10 | +++ (+++=>3) |  |  | < 3 | +++** (+++=>0.6) |  | 
COc1nc(N[C@H]2CC[C@@H](C)CC2)ncc1-c1ccc(OC(F)F)cc1 [Example 59, 5-(4-(difluoromethoxy)phenyl)-4-methoxy-N-((1s,4s)-4-methylcyclohexyl)pyrimidin-2-amine] | < 10 | +++ (+++=>3) |  |  | < 3 | ++** (++=0.3-0.6) |  | 
CC(C)Oc1ccc(-c2cnc(N[C@H]3CC[C@@H](C)CC3)nc2)cc1 [Example 23, 5-(4-isopropoxyphenyl)-N-((1s,4s)-4-methylcyclohexyl)pyrimidin-2-amine] | < 10 | +++ (+++=>3) |  |  | < 3 | +++** (+++=>0.6) |  | 
COc1nc(N[C@H]2CC[C@@H](C)CC2)ncc1-c1ccc(OC(F)(F)F)cc1 [Example 103, 4-methoxy-N-((1s,4s)-4-methylcyclohexyl)-5-(4-(trifluoromethoxy)phenyl)pyrimidin-2-amine] |  |  |  |  |  |  | < 3 | ++ (++=0.3-0.6)
COc1nc(N[C@H]2CC[C@@H](C)CC2)ncc1-c1ccc(OC(F)F)cc1 [Example 104, 5-(4-(difluoromethoxy)phenyl)-4-methoxy-N-((1s,4s)-4-methylcyclohexyl)pyrimidin-2-amine] |  |  |  |  |  |  | < 3 | ++ (++=0.3-0.6)
C[C@H]1CC[C@@H](Nc2ncc(-c3ccc(OC(F)F)cc3)cn2)CC1 [Example 19, 5-(4-(difluoromethoxy)phenyl)-N-((1s,4s)-4-methylcyclohexyl)pyrimidin-2-amine] | < 10 | +++ (+++=>3) |  |  | < 3 | +++** (+++=>0.6) |  | 
COc1ccc(-c2cnc(N[C@H]3CC[C@@H](C)CC3)nc2)cc1 [Example 27, 5-(4-methoxyphenyl)-N-((1s,4s)-4-methylcyclohexyl)pyrimidin-2-amine] | < 10 | +++ (+++=>3) |  |  | < 3 | ++** (++=0.3-0.6) |  | 

Other lines, results leading:

EC50 (ΔF508 CFTR [1]) [µM] | Corrector Efficacy (ΔF508 CFTR [1]) | EC50 (ΔF508 CFTR [2]; * vehicle treated cells) [µM] | Potentiator Efficacy (ΔF508 CFTR [2]; * vehicle treated cells) | EC50 (ΔF508 CFTR [2]; [3]) [µM] | Potentiator Efficacy (ΔF508 CFTR [2]; [3]) | EC50 (ΔF508 CFTR [2]; [4]) [µM] | Potentiator Efficacy (ΔF508 CFTR [2]; [4]) | Compound
~10 | +++ (+++=>3) |  |  |  |  |  |  | C[C@H]1CC[C@@H](Nc2ncc(-c3ccc4c(c3)OCCO4)c(O[C@@H]3CCOC3)n2)CC1 [Example 201, 5-(2,3-dihydrobenzo[b][1,4]dioxin-6-yl)-N-((1s,4S)-4-methylcyclohexyl)-4-((R)-tetrahydrofuran-3-yloxy)pyrimidin-2-amine]
 |  |  |  |  |  | < 3 | ++ (++=0.3-0.6) | COc1nc(N[C@H]2CC[C@@H](C)CC2)ncc1-c1ccnc(C#N)c1 [Example 143, 4-(4-methoxy-2-((1s,4s)-4-methylcyclohexylamino)pyrimidin-5-yl)picolinonitrile]
> 20 | +++ (+++=>3) |  |  |  |  |  |  | COc1nc(N[C@H]2CC[C@@H](C)CC2)ncc1-c1ccc(OCC#N)cc1 [Example 125, 2-(4-(4-methoxy-2-((1s,4s)-4-methylcyclohexylamino)pyrimidin-5-yl)phenoxy)acetonitrile]
> 10 | +++ (+++=>3) |  |  |  |  |  |  | C[C@H]1CC[C@@H](Nc2ncc(-c3ccc(OCC#N)cc3)c(OC3CCOC3)n2)CC1 (some centres unmarked) [Example 150, 2-(4-(2-((1s,4s)-4-methylcyclohexylamino)-4-(tetrahydrofuran-3-yloxy)pyrimidin-5-yl)phenoxy)acetonitrile]
> 20 | +++ (+++=>3) |  |  |  |  |  |  | C[C@H]1CC[C@@H](Nc2ncc(-c3ccc(OCC#N)cc3)c(OCC3CC3)n2)CC1 [Example 133, 2-(4-(4-(cyclopropylmethoxy)-2-((1s,4s)-4-methylcyclohexylamino)pyrimidin-5-yl)phenoxy)acetonitrile]
